According to patent US20100197625A1, “SYNTHETIC LIPOPHILIC INOSITOL GLYCANS FOR TREATMENT OF CANCER AND GLUCOSE-METABOLISM DISORDERS” (priority 2006, published 2010):

Tests used:
MKN45 = assay: Cell proliferation / cell death assay, MKN45; format: cell-based, human; details: MKN45, 10-100 μM
Procedure: (§1) Human pancreatic cancer cell lines (Panc-1, MiaPaca2, BXPC3, Aspc 1), human hepatoma cell line (HuH7), human gastric cancer cell lines (AGS, MKN45), human colon cancer cell line (CoCM-1), human mammary cancer cell line (MCF-7), human neuroblastoma (SH-SY5Y), human prostate cancer cells (PC3), and murine Ehrlich ascites cancer cells and mouse 3T3-L1 fibroblasts were obtained from American Type Culture Collection (Rockville, Md., USA). The cancer cells were cultured in RPMI 1640 containing 10% fetal calf serum. Cultures were maintained at 37° C. in a humidified atmosphere of 5% CO2.
(§2) Cell proliferation assays were performed with the CellTiter 96 AQueous One Solution Cell Proliferation Assay kit according to the manufacturer's instructions (Promega, Madison, Wis., USA). Briefly, 5×10^3 cells/well in medium were placed onto 96-well plates. IGs were added to cellular cultures at final concentrations of 0, 1, 10, and 100 μM. Cultures were incubated for 3 days or 7 days and then added to 20 μL/well of CellTiter 96 AQueous One Solution Reagent, which contains a tetrazolium compound, 3-(4,5-dimethylthiazol-2-yl)-5-(3-carboxymethoxyphenyl)-2-(4-sulfophenyl)-2H-tetrazolium, an inner salt; MTS was added to the culture medium. After incubating the plate for 1 h in a CO2 incubator, absorbance at 490 nm was recorded with a 96-well plate reader.

[1] = system: human neuroblastoma (SH-SY5Y); assay: Cell proliferation / cell death assay, SH-SY5Y; format: cell-based; details: 10-100 μM
Procedure: as §1
as §2, with “Cultures were incubated for 3 days or 7 days and then added to 20 μL/well” left out

[2] = system: murine Ehrlich ascites cancer cells; assay: Cell proliferation / cell death assay, Ehrlich ascites cancer cells; format: cell-based; details: 10-100 μM
Procedure: as §1, §2

[3] = system: C57B/6 mice on high-fat diets; assay: Intraperitoneal IG1 for 7 days, mice on high-fat diets; format: in vivo
Procedure: (§3) Male C57BL/6 mice were housed individually and given free access to a standard diet (65% carbohydrate, 4% fat, and 24% protein) or a high-fat diet (Quick Fat; 60.2% carbohydrate, 15.3% fat, and 24.5% protein; Clea Japan, Tokyo, Japan), starting at 5 weeks of age, for 5 weeks. Db/db mice also were housed individually and given free access to a standard diet. C57BL/6 mice at 5 weeks of age, were received a single dose of 75 μg/g body weight streptozotoxin (STZ). 7 days after injections, the mice, whose fasting plasma glucose concentrations were over 400 mg/dl, were used as STZ-diabetic mice. Animal study protocols were in accordance with the institutional guidelines for animal experiments at Tohoku University.
(§4) Frozen livers were homogenized, and triglycerides were extracted with CHCl3:CH3OH (2:1, vol:vol), dried and resuspended in 2-propanol (17). Triglyceride contents were measured using Lipidos liquid (TOYOBO, Osaka, Japan). Glycogen was isolated from 30-50 mg of frozen liver by dissolving the tissue in 30% potassium hydroxide saturated with Na2SO4 for 30 min at 100° C., followed by ethanol precipitation. Glycogen content was determined by the phenol-sulfuric acid spectrophotometric method at 490 nm (18) and expressed as micrograms of glycogen per milligram of liver.
(§5) Blood glucose was assayed with Glucose Ace (Sanwa Kagaku Kenkyusho, Nagoya, Japan). Serum insulin and leptin were determined with ELISA kits (Morinaga Institute of Biological Science, Yokohama, Japan). Serum adiponectin and tumor necrosis factor-α (TNF-α) concentrations were measured with an ELISA kit (Ohtsuka Pharmaceutical, Tokyo, Japan) and a TNF-α assay kit (Amersham Biosciences, Uppsala, Sweden), respectively. Serum total cholesterol, triglyceride, and FFA concentrations were determined with a Cholescolor liquid, Lipidos liquid (TOYOBO, Osaka, Japan), and NEFA C (Wako Pure Chemical, Osaka, Japan) kits, respectively.
Glucose tolerance was assessed with intraperitoneal glucose tolerance. Glucose tolerance tests were performed on fasted (16 h) mice. Mice were given intraperitoneal glucose (2 g/kg body wt), and blood glucose was assayed immediately before and at 15, 30, 60, and 120 min after administration.

db/db mice = assay: Intraperitoneal IG1 for 7 days, db/db mice; format: in vivo; details: intraperitoneal for every 7 days, data not shown
Procedure: as §3, with “Animal study protocols were in accordance with the institutional guidelines for animal experiments at Tohoku University.” left out
as §4, with “Glycogen was isolated from 30-50 mg of frozen liver by dissolving the tissue in 30% potassium hydroxide saturated with Na2SO4 for 30 min at 100° C., followed by ethanol precipitation.” left out
as §5, with “Serum total cholesterol, triglyceride, and FFA concentrations were determined with a Cholescolor liquid, Lipidos liquid (TOYOBO, Osaka, Japan), and NEFA C (Wako Pure Chemical, Osaka, Japan) kits, respectively.” left out

[4] = high fat-diets, IG1 1 mg, 7 days, Mean ± SD (n = 6)

SMILES: CCCCCCCCCCCCCCCC(=O)O[C@@H]1C(O)C(O)[C@H](O)C(O[C@H]2OC(CO)[C@@H](O)[C@H](O)C2N)C1O (stereo in doubt) [IG1, 2-Amino-2-deoxy-α-D-glucopyranosyl-(1→6)-2-palmitoyl-D-myo-inositol]
- rapid cancer cell death (MKN45): rapid cancer cell death was demonstrated
- rapid cancer cell death [1]: rapid cancer cell death was demonstrated
- rapid cancer cell death [2]: rapid cancer cell death was demonstrated
- hepatic and muscular glycogen contents ([3]; after 7 days, data not shown): increases hepatic and muscular glycogen contents
- hepatic triglyceride contents ([3]; after 7 days, data not shown): decreases hepatic triglyceride contents
- Adiponectin [3, 4]: 50.4 ± 4.8 µg/mL
- Body weight [3, 4]: 32.1 ± 1.8 g
- Fasting plasma glucose [3, 4]: 62.8 ± 6.3 mg/dL
- Fasting plasma insulin [3, 4]: 0.44 ± 0.19 ng/mL
- Food intake [3, 4]: 2.93 ± 0.37 g/day
- Leptin [3, 4]: 17.3 ± 5.4 ng/mL
- NEFA [3, 4]: 0.78 ± 0.18 mEq/l
- TNF-1α [3, 4]: 33.7 ± 4.4 pg/mL
- Total cholesterol [3, 4]: 177.9 ± 24.6 mg/dL
- Triglyceride [3, 4]: 26.2 ± 4.4 mg/dL
- glucose tolerance ([3]; intraperitoneal, 1 mg per mice, for every 7 days): significantly improved glucose tolerance
- glucose tolerance (db/db mice): improves glucose tolerance
- hepatic and muscular glycogen synthesis (db/db mice): increases hepatic and muscular glycogen synthesis
